Measurements as given in article PMC5855594, “Poly-N-Acetyllactosamine Neo-Glycoproteins as Nanomolar Ligands of Human Galectin-3: Binding Kinetics and Modeling” (International Journal of Molecular Sciences, 2018).
Where two headings read alike, the source gives them in different places. Blank lines part the entries; values can stand above or below the compound they belong to.

Tests used:
[1] = molecular target: T1, human galectin-3 (Gal-3) (Homo sapiens, UniProt P17931); assay: Direct ELISA: binding of soluble His-tagged Gal-3 to immobilized neo-glycoproteins or ASF
T1 construct: made in house; host or cells: E. coli Rosetta (DE3) pLysS
Text: To determine the binding affinities between Gal-3 and neo-glycoproteins 9–16, the binding of soluble Gal-3 to the neo-glycoproteins immobilized in microplate wells was quantified by colorimetric immunodetection using anti-His antibody conjugated to horseradish peroxidase (HRP) (Figure 2a). Gal-3 bound neo-glycoproteins in a concentration-dependent manner and the interaction was exclusively conferred by glycan moieties since no binding of Gal-3 to the glycan-free BSA was detected. Apparent dissociation constants (Kd) of the Gal-3/neo-glycoprotein complexes were calculated from a non-linear regression of binding curves.
The affinity of Gal-3 for neo-glycoproteins 9–16 was determined using ELISA as reported previously. For the immobilization of the respective neo-glycoproteins or non-modified BSA (negative control), we used F16 Maxisorp NUNC-Immuno Modules (Thermo Scientific, Roskilde, Denmark). Per well, an amount of 5 pmol was incubated overnight at a working concentration of 0.1 µM (PBS). Then the wells were blocked with bovine serum albumin (2% w/v) diluted in PBS (1 h, room temperature). […] The binding signal of bound galectin was measured with a spectrophotometer (Spectra Max Plus, Molecular Devices, Sunnyvale, CA, USA) at an optical density of 450 nm. Obtained data were analyzed using SigmaPlot 10 software (Systat Software GmbH, Erkrath, Germany).

[2] = molecular target: T2, Gal-3-AVI (Homo sapiens, UniProt P17931); assay: Direct ELISA with Gal-3-AVI construct; assay type: binding; conditions: read-out: Kd app, direct ELISA
T2 construct: made in house; host or cells: E. coli BL21 (λDE3), co-expressed with BirA
Text: To overcome the difficulties with Gal-3 immobilization, we prepared a biotinylated version of Gal-3 through in vivo biotinylation of an AviTag peptide that was genetically fused to the N-terminus of Gal-3 (Gal-3-AVI) (Figure 3). The AviTag is a specific 15-amino acid peptide sequence ([…]) that directs a highly targeted enzymatic conjugation of a single biotin molecule to the specific lysine (K) residue within the AviTag sequence using biotin ligase (BirA). In contrast to chemical biotinylation, which usually generates heterogeneous products with impaired function, the co-translational biotinylation of the AviTag peptide is site specific and provides a highly homogeneous protein preparation. Moreover, the N-terminal localization of the AviTag peptide provides a favorable orientation of Gal-3-AVI on a streptavidin-coated surface, leaving the C-terminal carbohydrate-binding domain of Gal-3 freely accessible for binding interactions.
Table S1. Comparison of binding affinities of His6-tag Gal-3 and Gal-3-AVI in ELISA assays Kd app [µM], direct ELISA IC50 glycan [µM], competitive ELISA […]
Figure S7. SPR kinetic binding analysis of the interactions between asialofetuin (ASF) and immobilized Gal-3-AVI. ASF was injected in parallel over the neutravidin-coated sensor chip coated with the biotinylated Gal-3-AVI at a flow rate of 30 µl/min. […]

[3] = molecular target: T2, Gal-3-AVI; assay: SPR with biotinylated Gal-3-AVI captured on neutravidin chip, neo-glycoproteins as analytes; assay type: binding
Experimental: For SPR analysis, the biotinylated Gal-3-AVI was captured on a neutravidin-coated sensor chip, and the binding of serially diluted neo-glycoproteins 9–16 to immobilized Gal-3-AVI was analyzed. Three coupling concentrations of Gal-3-AVI were tested, so that the effect of mass transfer and the non-specific binding were minimized. As a result, the coupling level of 250 relative units (RU) along with the flow rate of 30 µL/min gave the optimum conditions and these parameters were used for the subsequent experiments.
Figure 4 SPR kinetic binding analysis of the interactions between neo-glycoproteins 9–16 and immobilized Gal-3-AVI. The neo-glycoproteins at indicated concentrations were injected in parallel over the neutravidin-coated sensor chip coated with the biotinylated Gal-3-AVI at a flow rate of 30 μL/min. The kinetic data were globally fitted by using a 1:1 Langmuir binding model. The fitted curves are superimposed as thin black lines on top of the sensograms. BSA, bovine serum albumin; rel., relative.
SPR measurements were performed at 25 °C using a set of sensor chips (GLC, NLC, HTE) mounted on a ProteOn XPR36 Protein Interaction Array System (Bio-Rad, Hercules, CA, USA ) as described previously. Briefly, Gal-3-AVI protein was diluted to a final concentration of 5 µg·mL^−1 in PBS and captured on a neutravidin-coated NLC sensor chip (Bio-Rad) at a flow rate of 30 µL·min^−1. Neo-glycoproteins 9–16, used here as analytes, were serially diluted in the running buffer (PBS supplemented with 0.005% Tween 20), and injected in parallel over the immobilized Gal-3-AVI at a flow rate of 30 µL·min^−1. The Gal-3-AVI surface was regenerated by a washing step with 50 mM HCl for 60 s. For the reversed experimental setup, the neo-glycoproteins 9–16 were immobilized on the GLC sensor chip by amine coupling chemistry and serial dilutions of Gal-3 were injected over the sensor surface. […] The equilibrium dissociation constant, KD, was determined as a ratio between the dissociation and association rate constants: KD=kd/ka

[4] = molecular target: T1, human galectin-3 (Gal-3); conditions: monovalent glycan; inhibition of Gal-3 binding to immobilized ASF; cited from earlier work
[5] = molecular target: T1, human galectin-3 (Gal-3); assay: Competitive ELISA: inhibition of His-tagged Gal-3 binding to immobilized asialofetuin (ASF); conditions: for increase of inhibitory potency compared to lactose (times): competitive ELISA; for IC50: read-out: IC50 Glycan
Experimental: To assess the inhibitory potential of glycans 1–8 and the respective neo-glycoproteins 9–16 towards Gal-3, their capacity to inhibit the binding of Gal-3 to immobilized asialofetuin (ASF) was determined by competitive ELISA inhibition analyses (Figure 2b). ASF is a multivalent glycoprotein presenting three triantennary N-glycans terminated with LacNAc, which is reported to interact with Gal-3. Here, Gal-3 was incubated with increasing concentrations of the glycans or neo-glycoproteins as competing ligands and the inhibition of Gal-3 binding to immobilized ASF was quantified by colorimetric immunodetection using anti-His antibody conjugated to HRP. […] The respective inhibition constants (IC50) were calculated from the non-linear regression of the sigmoidal inhibition curves and they are listed in Table 1.
In the competitive ELISA design, the F16 Maxisorp NUNC-Immuno Modules (Thermo Scientific, Roskilde, Denmark) were coated overnight with ASF (Sigma Aldrich, Steinheim, Germany; 0.1 µM in PBS, 50 µL, 5 pmol per well) and blocked with BSA (2% w/v) diluted in PBS (1 h, room temperature). […] Detection of bound Gal-3 and data analysis were performed as described above.

[6] = molecular target: T2, Gal-3-AVI; assay: Competitive ELISA with Gal-3-AVI construct; assay type: binding; conditions: read-out: IC50 glycan, competitive ELISA
[7] = immobilized Gal-3-AVI, 1:1 Langmuir model, 25 °C

T1 sequence (P17931 whole entry): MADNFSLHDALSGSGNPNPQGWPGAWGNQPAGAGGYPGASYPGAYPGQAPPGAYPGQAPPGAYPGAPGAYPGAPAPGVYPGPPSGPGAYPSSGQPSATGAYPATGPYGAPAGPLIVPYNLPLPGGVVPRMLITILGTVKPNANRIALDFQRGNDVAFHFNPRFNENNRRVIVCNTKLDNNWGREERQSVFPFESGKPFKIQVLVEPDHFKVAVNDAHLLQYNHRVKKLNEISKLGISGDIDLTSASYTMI
T2 sequence (P17931 whole entry): as above

Compound: Asialofetuin [ASF]
Kd ([1]; His6-tag Gal-3, read-out: Kd app, direct ELISA): 5 ± 1 µM | Kd [2]: 4.8 ± 0.2 µM | ka [3, 7]: (4.8 ± 1.9) × 10^4 M^−1·s^−1 | kd [3, 7]: (4.0 ± 1.7) × 10^−4 s^−1

Compound: bovine serum albumin [BSA]
binding of Gal-3 in direct ELISA ([1]; negative control, immobilized): no binding | SPR response / binding to immobilized Gal-3-AVI ([3]; nanomolar concentrations): no binding

Compound: CC(=O)N[C@@H]1[C@@H](O)[C@H](O[C@@H]2O[C@H](CO)[C@H](O)[C@H](O[C@@H]3O[C@H](CO)[C@@H](O[C@@H]4O[C@H](CO)[C@H](O)[C@H](O)[C@H]4O)[C@H](O)[C@H]3NC(C)=O)[C@H]2O)[C@@H](CO)O[C@H]1NC(=S)NCCNC(=O)OC(C)(C)C [glycan 4, LacNAc-LacNAc]
IC50 [4]: 13 ± 3 µM

Compound: CC(=O)N[C@@H]1[C@@H](O)[C@H](O[C@@H]2O[C@H](CO)[C@H](O)[C@H](O[C@@H]3O[C@H](CO)[C@@H](O[C@@H]4O[C@H](CO)[C@H](O)[C@H](O[C@@H]5O[C@H](CO)[C@@H](O[C@@H]6O[C@H](CO)[C@H](O)[C@H](O[C@H]7O[C@H](CO)[C@H](O)[C@H](O)[C@H]7O)[C@H]6O)[C@H](O)[C@H]5NC(C)=O)[C@H]4O)[C@H](O)[C@H]3NC(C)=O)[C@H]2O)[C@@H](CO)O[C@H]1NC(=S)NCCNC(=O)OC(C)(C)C [glycan 8, Galili-LacNAc-LacNAc]
IC50 [4]: 8.4 ± 0.1 µM

Compound: CC(=O)N[C@@H]1[C@@H](O)[C@H](O[C@@H]2O[C@H](CO)[C@H](O)[C@H](O[C@@H]3O[C@H](CO)[C@@H](O[C@@H]4O[C@H](CO)[C@H](O)[C@H](O[C@@H]5O[C@H](CO)[C@@H](O[C@@H]6O[C@H](CO)[C@H](O)[C@H](O)[C@H]6NC(C)=O)[C@H](O)[C@H]5NC(C)=O)[C@H]4O)[C@H](O)[C@H]3NC(C)=O)[C@H]2O)[C@@H](CO)O[C@H]1NC(=S)NCCNC(=O)OC(C)(C)C [glycan 5, LacdiNAc-LacNAc-LacNAc]
IC50 [4]: 6.2 ± 0.02 µM

Compound: CC(=O)N[C@@H]1[C@@H](O)[C@H](O[C@@H]2O[C@H](CO)[C@H](O)[C@H](O[C@@H]3O[C@H](CO)[C@@H](O[C@@H]4O[C@H](CO)[C@H](O)[C@H](O[C@@H]5O[C@H](CO)[C@@H](O[C@@H]6O[C@H](CO)[C@H](O)[C@H](O)[C@H]6O)[C@H](O)[C@H]5NC(C)=O)[C@H]4O)[C@H](O)[C@H]3NC(C)=O)[C@H]2O)[C@@H](CO)O[C@H]1NC(=S)NCCNC(=O)OC(C)(C)C [glycan 6, LacNAc-LacNAc-LacNAc]
IC50 [4]: 20.1 ± 0.1 µM

Compound: CC(=O)N[C@@H]1[C@@H](O)[C@H](O[C@@H]2O[C@H](CO)[C@H](O)[C@H](O[C@@H]3O[C@H](CO)[C@@H](O[C@@H]4O[C@H](CO)[C@H](O)[C@H](O)[C@H]4NC(C)=O)[C@H](O)[C@H]3NC(C)=O)[C@H]2O)[C@@H](CO)O[C@H]1NC(=S)NCCNC(=O)OC(C)(C)C [glycan 3, LacdiNAc-LacNAc]
IC50 [4]: 7 ± 1 µM

increase of inhibitory potency compared to lactose (times) [5]: up to 4 | IC50 [5]: 42 ± 2 µM | IC50 [6]: 43 ± 4 µM
Compound: CC(=O)N[C@@H]1[C@@H](O)[C@H](O[C@@H]2O[C@H](CO)[C@H](O)[C@H](O)[C@H]2NC(C)=O)[C@@H](CO)O[C@H]1NC(=S)NCCNC(=O)OC(C)(C)C [glycan 1, LacdiNAc]

Compound: CC(=O)N[C@@H]1[C@@H](O)[C@H](O[C@@H]2O[C@H](CO)[C@H](O)[C@H](O[C@@H]3O[C@H](CO)[C@@H](O[C@@H]4O[C@H](CO)[C@H](O)[C@H](O[C@@H]5O[C@H](CO)[C@@H](O)[C@H](O[C@@H]6O[C@H](CO)[C@H](O)[C@H](O)[C@H]6O)[C@H]5NC(C)=O)[C@H]4O)[C@H](O)[C@H]3NC(C)=O)[C@H]2O)[C@@H](CO)O[C@H]1NC(=S)NCCNC(=O)OC(C)(C)C [glycan 7, LacNAc type 1-LacNAc-LacNAc]
IC50 [4]: 12.5 ± 0.1 µM

increase of inhibitory potency compared to lactose (times) [5]: up to 4 | IC50 [5]: 36 ± 1 µM
Compound: CC(=O)N[C@@H]1[C@@H](O)[C@H](O[C@@H]2O[C@H](CO)[C@H](O)[C@H](O)[C@H]2O)[C@@H](CO)O[C@H]1NC(=S)NCCNC(=O)OC(C)(C)C [glycan 2]
